Assay results taken from patent publication US12448392B2, “Spiropiperidine derivatives” (89BIO LTD, priority 2016, dated 2025).
Counter-ions that a name gives are not always drawn. Like-named read-outs stand apart in the source and are kept apart here.

Biological target: T1, recombinant human baculovirus-expressed GST-tagged FASN (Homo sapiens, UniProt P49327)
T1 construct: GST
Assay: biochemical

[1] = 5 nM FASN, 150 μM NADPH, 10 μM acetyl-CoA, 25 μM malonyl-CoA, 90 minutes incubation, read-out: IC50 data for Compounds of Formula I, Activity

T1 sequence (P49327 whole entry): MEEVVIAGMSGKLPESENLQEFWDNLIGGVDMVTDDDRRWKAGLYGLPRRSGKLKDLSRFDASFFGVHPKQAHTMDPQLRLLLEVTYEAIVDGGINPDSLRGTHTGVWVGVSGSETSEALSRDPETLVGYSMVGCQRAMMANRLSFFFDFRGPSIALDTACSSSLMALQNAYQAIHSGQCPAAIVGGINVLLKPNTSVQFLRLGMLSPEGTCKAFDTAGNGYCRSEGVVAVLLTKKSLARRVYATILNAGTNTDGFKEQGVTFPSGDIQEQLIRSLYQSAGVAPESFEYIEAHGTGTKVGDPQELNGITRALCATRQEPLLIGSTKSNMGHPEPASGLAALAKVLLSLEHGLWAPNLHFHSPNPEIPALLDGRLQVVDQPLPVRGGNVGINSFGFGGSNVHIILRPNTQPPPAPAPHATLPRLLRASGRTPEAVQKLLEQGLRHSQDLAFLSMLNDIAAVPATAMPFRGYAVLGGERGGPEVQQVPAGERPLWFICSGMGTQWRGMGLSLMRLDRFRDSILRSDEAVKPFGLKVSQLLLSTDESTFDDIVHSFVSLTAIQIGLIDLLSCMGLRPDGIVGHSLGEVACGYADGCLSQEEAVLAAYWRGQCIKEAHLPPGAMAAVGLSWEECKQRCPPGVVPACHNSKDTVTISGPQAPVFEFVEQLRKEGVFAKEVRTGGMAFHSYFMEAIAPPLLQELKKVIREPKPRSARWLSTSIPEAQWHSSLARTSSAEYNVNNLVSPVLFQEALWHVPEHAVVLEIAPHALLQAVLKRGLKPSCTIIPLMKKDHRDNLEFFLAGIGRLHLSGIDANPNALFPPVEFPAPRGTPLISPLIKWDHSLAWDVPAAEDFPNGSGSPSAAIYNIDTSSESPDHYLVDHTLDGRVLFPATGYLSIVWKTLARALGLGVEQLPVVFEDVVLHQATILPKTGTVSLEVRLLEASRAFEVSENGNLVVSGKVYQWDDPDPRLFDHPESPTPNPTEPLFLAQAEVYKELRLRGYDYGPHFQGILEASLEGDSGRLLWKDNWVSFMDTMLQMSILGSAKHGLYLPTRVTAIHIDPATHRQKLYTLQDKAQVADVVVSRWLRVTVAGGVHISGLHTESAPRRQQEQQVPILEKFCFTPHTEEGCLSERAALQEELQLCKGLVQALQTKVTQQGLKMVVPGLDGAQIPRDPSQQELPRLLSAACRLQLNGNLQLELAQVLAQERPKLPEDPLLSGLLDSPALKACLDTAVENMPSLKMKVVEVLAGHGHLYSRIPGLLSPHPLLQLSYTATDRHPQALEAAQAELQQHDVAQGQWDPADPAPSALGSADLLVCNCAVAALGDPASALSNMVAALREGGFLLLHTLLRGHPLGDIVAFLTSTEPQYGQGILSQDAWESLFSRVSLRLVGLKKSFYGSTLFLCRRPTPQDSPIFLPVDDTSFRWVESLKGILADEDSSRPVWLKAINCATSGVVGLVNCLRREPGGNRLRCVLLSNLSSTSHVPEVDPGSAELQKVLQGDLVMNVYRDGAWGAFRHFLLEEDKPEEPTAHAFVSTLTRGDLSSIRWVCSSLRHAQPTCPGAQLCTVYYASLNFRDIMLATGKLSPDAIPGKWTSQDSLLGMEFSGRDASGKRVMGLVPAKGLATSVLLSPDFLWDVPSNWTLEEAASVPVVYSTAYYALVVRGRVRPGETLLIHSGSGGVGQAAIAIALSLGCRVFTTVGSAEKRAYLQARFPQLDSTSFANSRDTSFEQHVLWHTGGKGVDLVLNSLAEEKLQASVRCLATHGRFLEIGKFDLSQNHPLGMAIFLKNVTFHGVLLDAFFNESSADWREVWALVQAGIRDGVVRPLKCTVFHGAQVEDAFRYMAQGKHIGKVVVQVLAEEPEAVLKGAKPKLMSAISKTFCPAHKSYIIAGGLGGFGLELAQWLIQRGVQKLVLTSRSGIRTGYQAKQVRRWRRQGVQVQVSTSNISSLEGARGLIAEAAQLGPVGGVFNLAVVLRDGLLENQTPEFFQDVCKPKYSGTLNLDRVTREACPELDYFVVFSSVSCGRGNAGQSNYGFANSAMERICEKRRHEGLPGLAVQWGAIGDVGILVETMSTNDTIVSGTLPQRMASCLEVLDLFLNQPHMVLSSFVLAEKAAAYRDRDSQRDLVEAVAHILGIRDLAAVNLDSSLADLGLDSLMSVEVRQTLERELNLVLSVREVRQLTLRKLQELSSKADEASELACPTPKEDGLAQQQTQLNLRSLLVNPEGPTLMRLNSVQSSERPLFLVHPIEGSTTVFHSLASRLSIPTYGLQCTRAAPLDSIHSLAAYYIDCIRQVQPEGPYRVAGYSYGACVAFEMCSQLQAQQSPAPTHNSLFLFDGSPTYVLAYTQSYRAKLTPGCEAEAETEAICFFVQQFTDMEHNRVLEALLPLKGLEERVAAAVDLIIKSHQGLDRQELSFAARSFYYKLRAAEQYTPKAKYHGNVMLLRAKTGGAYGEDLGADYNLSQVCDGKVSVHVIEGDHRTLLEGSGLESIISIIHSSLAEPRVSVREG

Structure (SMILES)	IC50 [1] [nM]	IC50 [nM]
Cc1nccc2cc(-c3ccc4c(c3)CCC3(CCN(C(=O)[C@H]5CCCO5)CC3)O4)ccc12 [Example 1, [6-(1-Methyl-6-isoquinolyl)spiro[chromane-2,4′-piperidine]-1′-yl]-[(2R)-tetrahydrofuran-2-yl]methanone, HCl]	1 to 99	
CCC(=O)N1CCC2(CCc3cc(-c4cnc5ccccc5c4C)ccc3O2)CC1 [Example 2, 1-[6-(4-Methyl-3-quinolyl)spiro[chromane-2,4′-piperidine]-1′-yl]propan-1-one, HCl]	1 to 99	
Cc1c(-c2ccc3c(c2)CCC2(CCN(C(=O)C4CC4)CC2)O3)cnc2ccccc12 [Example 3, Cyclopropyl-[6-(4-methyl-3-quinolyl)spiro[chromane-2,4′-piperidine]-1′-yl]-methanone HCl]	1 to 99	
Cc1c(-c2ccc3c(c2)CCC2(CCN(C(=O)[C@H]4CCCO4)CC2)O3)cnc2ccccc12 [Example 4, [6-(4-Methyl-3-quinolyl)spiro[chromane-2,4′-piperidine]-1′-yl]-[(2R)-tetrahydrofuran-2-yl]methanone, HCl]	1 to 99	
O=C([C@H]1CCCO1)N1CCC2(CCc3cc(-c4ccc5c(C6CC6)nccc5c4)ccc3O2)CC1 [Example 5, [6-(1-Cyclopropyl-6-isoquinolyl)spiro[chromane-2,4′-piperidine]-1′-yl]-[(2R)-tetrahydrofuran-2-yl]methanone]	1 to 99	
CCC(=O)N1CCC2(CCc3cc(-c4ccc5cccnc5c4C)ccc3O2)CC1 [Example 6, 1-[6-(8-Methyl-7-quinolyl)spiro[chromane-2,4′-piperidine]-1′-yl]propan-1-one]	1 to 99	
Cc1c(-c2ccc3c(c2)CCC2(CCN(C(=O)C4CC4)CC2)O3)ccc2cccnc12 [Example 7, Cyclopropyl-[6-(8-methyl-7-quinolyl)spiro[chromane-2,4′-piperidine]-1′-yl]methanone, HCl]	1 to 99	
Cc1c(-c2ccc3c(c2)CCC2(CCN(C(=O)[C@H]4CCCO4)CC2)O3)ccc2cccnc12 [Example 8, [6-(8-Methyl-7-quinolyl)spiro[chromane-2,4′-piperidine]-1′-yl]-[(2R)-tetrahydrofuran-2-yl]methanone, HCl]	1 to 99	
CCC(=O)N1CCC2(CCc3cc(-c4ccc5cccnc5c4Cl)ccc3O2)CC1 [Example 9, 1-[6-(8-chloro-7-quinolyl)spiro[chromane-2,4′-piperidine]-1′-yl]propan-1-one]	1 to 99	
O=C(C1CC1)N1CCC2(CCc3cc(-c4ccc5cccnc5c4Cl)ccc3O2)CC1 [Example 10, [6-(8-Chloro-7-quinolyl)spiro[chromane-2,4′-piperidine]-1′-yl]-cyclopropyl-methanone, HCl]	1 to 99	
O=C([C@H]1CCCO1)N1CCC2(CCc3cc(-c4ccc5cccnc5c4Cl)ccc3O2)CC1 [Example 11, [6-(8-Chloro-7-quinolyl)spiro[chromane-2,4′-piperidine]-1′-yl]-[(2R)-tetrahydrofuran-2-yl]methanone, HCl]	1 to 99	
CCC(=O)N1CCC2(CCc3cc(-c4cnc5c(C)cccc5c4)ccc3O2)CC1 [Example 12, 1-[6-(8-Methyl-3-quinolyl)spiro[chromane-2,4′-piperidine]-1′-yl]propan-1-one]	1 to 99	
Cc1cccc2cc(-c3ccc4c(c3)CCC3(CCN(C(=O)C5CC5)CC3)O4)cnc12 [Example 13, Cyclopropyl-[6-(8-methyl-3-quinolyl)spiro[chromane-2,4′-piperidine]-1′-yl]-methanone, HCl]	100 to 999	
Cc1cccc2cc(-c3ccc4c(c3)CCC3(CCN(C(=O)[C@H]5CCCO5)CC3)O4)cnc12 [Example 14, [6-(8-Methyl-3-quinolyl)spiro[chromane-2,4′-piperidine]-1′-yl]-[(2R)-tetrahydrofuran-2-yl]methanone, HCl]	1 to 99	
COc1c(-c2ccc3c(c2)CCC2(CCN(C(=O)C4CC4)CC2)O3)ccc2cccnc12 [Example 15, Cyclopropyl-[6-(8-methoxy-7-quinolyl)spiro[chromane-2,4′-piperidine]-1′-yl]-methanone, HCl]	1 to 99	
COc1c(-c2ccc3c(c2)CCC2(CCN(C(=O)[C@H]4CCCO4)CC2)O3)ccc2cccnc12 [Example 16, [6-(8-Methoxy-7-quinolyl)spiro[chromane-2,4′-piperidine]-1′-yl]-[(2R)-tetra-hydrofuran-2-yl]methanone HCl]	1 to 99	
CCC(=O)N1CCC2(CCc3cc(-c4cc(C)c5ncccc5c4)ccc3O2)CC1 [Example 17, 1-[6-(8-Methyl-6-quinolyl)spiro[chromane-2,4′-piperidine]-1′-yl]propan-1-one, HCl]	100 to 999	
Cc1cc(-c2ccc3c(c2)CCC2(CCN(C(=O)C4CC4)CC2)O3)cc2cccnc12 [Example 18, Cyclopropyl-[6-(8-methyl-6-quinolyl)spiro[chromane-2,4′-piperidine]-1′-yl]methanone HCl]	100 to 999	
CCC(=O)N1CCC2(CCc3cc(-c4ccc5cccnc5c4OC)ccc3O2)CC1 [Example 19, 1-[6-(8-Methoxy-7-quinolyl)spiro[chromane-2,4′-piperidine]-1′-yl]propan-1-one]	1 to 99	

Structure (SMILES)	IC50 [1] [nM]	IC50 [nM]
Cc1cc(-c2ccc3c(c2)CCC2(CCN(C(=O)[C@H]4CCCO4)CC2)O3)cc2cccnc12 [Example 20, [6-(8-Methyl-6-quinolyl)spiro[chromane-2,4′-piperidine]-1′-yl]-[(2R)-tetrahydrofuran-2-yl]methanone]	1 to 99	
CCC(=O)N1CCC2(CC1)OCc1cc(-c3ccc4c(C)nccc4c3)ccc1O2 [Example 21, 1-[6-(1-Methyl-6-isoquinolyl)spiro[4H-1,3-benzodioxine-2,4′-piperidine]-1′-yl]propan-1-one]		1 to 99
Cc1nccc2cc(-c3ccc4c(c3)COC3(CCN(C(=O)C5CC5)CC3)O4)ccc12 [Example 22, Cyclopropyl-[6-(1-methyl-6-isoquinolyl)spiro[4H-1,3-benzodioxine-2,4′-piperidine]-1′-yl]methanone]		1 to 99
Cc1nccc2cc(-c3ccc4c(c3)COC3(CCN(C(=O)[C@H]5CCCO5)CC3)O4)ccc12 [Example 23, [6-(1-Methyl-6-isoquinolyl)spiro[4H-1,3-benzodioxine-2,4′-piperidine]-1′-yl]-[(2R)-tetrahydrofuran-2-yl]methanone]		1 to 99
CCC(=O)N1CCC2(CCc3cc(-c4ccc5c(C)nccc5c4)ccc3O2)CC1 [Example 24, 1-[6-(1-Methyl-6-isoquinolyl)spiro[chromane-2,4′-piperidine]-1′-yl]propan-1-one]	1 to 99	
Cc1nccc2cc(-c3ccc4c(c3)CCC3(CCN(C(=O)C5CC5)CC3)O4)ccc12 [Example 25, Cyclopropyl-[6-(1-methyl-6-isoquinolyl)spiro[chromane-2,4′-piperidine]-1′-yl]methanone]	100 to 999	
CCC(=O)N1CCC2(CCc3cc(-c4ccc5nccn5c4C)ccc3O2)CC1 [Example 26, 1-[6-(5-methylimidazo[1,2-a]pyridin-6-yl)spiro[chromane-2,4′-piperidine]-1′-yl]propan-1-one]	100 to 999	
Cc1c(-c2ccc3c(c2)CCC2(CCN(C(=O)C4CC4)CC2)O3)ccc2nccn12 [Example 27, Cyclopropyl-[6-(5-methylimidazo[1,2-a]pyridin-6-yl)spiro[chromane-2,4′-piperidine]-1′-yl]methanone]	100 to 999	
Cc1c(-c2ccc3c(c2)CCC2(CCN(C(=O)[C@H]4CCCO4)CC2)O3)ccc2nccn12 [Example 28, [6-(5-Methylimidazo[1,2-a]pyridin-6-yl)spiro[chromane-2,4′-piperidine]-1′-yl]-[(2R)-tetrahydrofuran-2-yl]methanone]	1 to 99	
CCOC(=O)N1CCC2(CC1)OCc1cc(-c3ccc4cccnc4c3)ccc1O2 [Example 30, Ethyl 6-(7-quinolyl)spiro[4H-1,3-benzodioxine-2,4′-piperidine]-1′-carboxylate]		1 to 99
CC(C)C(=O)N1CCC2(CC1)OCc1cc(-c3ccc4cccnc4c3)ccc1O2 [Example 31, 2-Methyl-1-[6-(7-quinolyl)spiro[4H-1,3-benzodioxine-2,4′-piperidine]-1′-yl]propan-1-one]		1 to 99
O=C(C1CC1)N1CCC2(CC1)OCc1cc(-c3ccc4cccnc4c3)ccc1O2 [Example 32, Cyclopropyl-[6-(7-quinolyl)spiro[4H-1,3-benzodioxine-2,4′-piperidine]-1′-yl]methanone]		1 to 99
CCC(=O)N1CCC2(CC1)OCc1cc(-c3cnc4ccccc4c3)ccc1O2 [Example 33, 1-[6-(3-Quinolyl)spiro[4H-1,3-benzodioxine-2,4′-piperidine]-1′-yl]propan-1-one]		1 to 99
CC(C)C(=O)N1CCC2(CC1)OCc1cc(-c3cnc4ccccc4c3)ccc1O2 [Example 34, 2-Methyl-1-[6-(3-quinolyl)spiro[4H-1,3-benzodioxine-2,4′-piperidine]-1′-yl]propan-1-one]		1 to 99
CCOC(=O)N1CCC2(CC1)OCc1cc(-c3cnc4cccnc4c3)ccc1O2 [Example 35, Ethyl 6-(1,5-naphthyridin-3-yl)spiro[4H-1,3-benzodioxine-2,4′-piperidine]-1′-carboxylate]		1000 to 10000
CCC(=O)N1CCC2(CC1)OCc1cc(-c3cnc4cccnc4c3)ccc1O2 [Example 36, 1-[6-(1,5-Naphthyridin-3-yl)spiro[4H-1,3-benzodioxine-2,4′-piperidine]-1′-yl]propan-1-one]		1000 to 10000
O=C(C1CC1)N1CCC2(CC1)OCc1cc(-c3cnc4cccnc4c3)ccc1O2 [Example 37, Cyclopropyl-[6-(1,5-naphthyridin-3-yl)spiro[4H-1,3-benzodioxine-2,4′-piperidine]-1′-yl]methanone]		1000 to 10000
CCC(=O)N1CCC2(CC1)CC(=O)c1cc(-c3cnc4ccccc4c3)ccc1O2 [Example 38, 1′-Propanoyl-6-(3-quinolyl)spiro[chromane-2,4′-piperidine]-4-one]	100 to 999	
COC(=O)N1CCC2(CC1)CC(=O)c1cc(-c3cnc4ccccc4c3)ccc1O2 [Example 39, Methyl 4-oxo-6-(3-quinolyl)spiro[chromane-2,4′-piperidine]-1′-carboxylate]	1000 to 10000	
